Results published in PubChem BioAssay (NCI).
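Assay format: 96-well plates, 48-hour exposure. Here, GI50 denotes the concentration required for 50% inhibition of growth. At the TGI there is no net growth.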

What was measured:
Experiment in all cases: NCI-60 cell line screen, 48 h
[1] = test system: SF-539 CNS
[2] = test system: LOX IMVI melanoma
[3] = test system: TK-10 renal
[4] = test system: UACC-257 melanoma
[5] = test system: OVCAR-3 ovarian
[6] = test system: SK-MEL-5 melanoma
[7] = test system: ACHN renal
[8] = test system: NCI/ADR-RES ovarian
[9] = test system: UACC-62 melanoma
[10] = test system: HS 578T breast
[11] = test system: MALME-3M melanoma
[12] = test system: OVCAR-8 ovarian
[13] = test system: DU-145 prostate
[14] = test system: RPMI-8226 leukemia
[15] = test system: M14 melanoma
[16] = test system: MCF7 breast
[17] = test system: T-47D breast
[18] = test system: NCI-H23 lung
[19] = test system: NCI-H460 lung
[20] = test system: SK-MEL-28 melanoma
[21] = test system: SK-OV-3 ovarian
[22] = test system: U251 CNS
[23] = test system: MOLT-4 leukemia
[24] = test system: OVCAR-5 ovarian
[25] = test system: HCT-116 colon
[26] = test system: CCRF-CEM leukemia
[27] = test system: EKVX NSCLC
[28] = test system: BT-549 breast
[29] = test system: SN12C renal
[30] = test system: A549 NSCLC
[31] = test system: HCT-15 colon
[32] = test system: HCC-2998 colon
[33] = test system: SF-268 CNS
[34] = test system: SF-295 CNS
[35] = test system: SNB-19 CNS
[36] = test system: HOP-62 NSCLC
[37] = test system: HOP-92 NSCLC
[38] = test system: COLO 205 colon
[39] = test system: SNB-75 CNS
[40] = test system: PC-3 prostate
[41] = test system: SW-620 colon
[42] = test system: CAKI-1 renal
[43] = test system: KM12 colon
[44] = test system: K-562 leukemia
[45] = test system: HT29 colon
[46] = test system: MDA-MB-435
[47] = test system: OVCAR-4 ovarian

Nc1ccccc1C#C/C=C\C#Cc1cnccn1
GI50 [1]: 22.8 µM
TGI [1]: 87.6 µM
GI50 [2]: 2.93 µM
TGI [2]: 17.5 µM
GI50 [3]: 32.4 µM
TGI [3]: 60 µM
GI50 [4]: 26 µM
TGI [4]: > 100 µM
GI50 [5]: 86.5 µM
TGI [5]: > 100 µM
GI50 [6]: 6.34 µM
TGI [6]: 21.3 µM
GI50 [7]: 22.2 µM
TGI [7]: 79.7 µM
GI50 [8]: 13.7 µM
TGI [8]: 31.9 µM
GI50 [9]: 3.95 µM
TGI [9]: 21 µM
GI50 [10]: 27 µM
TGI [10]: > 100 µM
GI50 [11]: 19.9 µM
TGI [11]: 58.6 µM
GI50 [12]: 41.8 µM
TGI [12]: > 100 µM
GI50 [13]: 19.4 µM
TGI [13]: > 100 µM
GI50 [14]: 3.17 µM
TGI [14]: 19.2 µM
GI50 [15]: 6.21 µM
TGI [15]: 20.4 µM
GI50 [16]: 21.3 µM
TGI [16]: > 100 µM
GI50 [17]: 17.7 µM
TGI [17]: 40.3 µM
GI50 [18]: 12.1 µM
TGI [18]: 27 µM
GI50 [19]: 29.8 µM
TGI [19]: > 100 µM
GI50 [20]: 27.8 µM
TGI [20]: > 100 µM
GI50 [21]: 31.1 µM
TGI [21]: 95.5 µM
GI50 [22]: 18.2 µM
TGI [22]: 41.8 µM
GI50 [23]: 12.4 µM
TGI [23]: 68.5 µM
GI50 [24]: 18.8 µM
TGI [24]: 45.7 µM
GI50 [25]: 11.2 µM
TGI [25]: 23.2 µM
TGI [26]: 14.8 µM
GI50 [27]: 16.3 µM
TGI [27]: > 100 µM
GI50 [28]: 20.3 µM
TGI [28]: 70.2 µM
GI50 [29]: 4.33 µM
TGI [29]: 20.7 µM
GI50 [30]: 30.2 µM
TGI [30]: > 100 µM
GI50 [31]: 26.1 µM
TGI [31]: > 100 µM
GI50 [32]: 11 µM
TGI [32]: 23 µM
GI50 [33]: 27.5 µM
TGI [33]: > 100 µM
GI50 [34]: 74.6 µM
TGI [34]: > 100 µM
GI50 [35]: 36.7 µM
TGI [35]: > 100 µM
GI50 [36]: 13.6 µM
TGI [36]: 32.3 µM
GI50 [37]: 1.36 µM
TGI [37]: 18.3 µM
GI50 [38]: 14.5 µM
TGI [38]: 28.5 µM
GI50 [39]: 21.1 µM
TGI [39]: 90.7 µM
GI50 [40]: 4.11 µM
TGI [40]: 23.8 µM
GI50 [41]: 15.2 µM
TGI [41]: 46.1 µM
GI50 [42]: 46.3 µM
TGI [42]: > 100 µM
GI50 [43]: 23.3 µM
TGI [43]: > 100 µM
GI50 [44]: 6.66 µM
TGI [44]: > 100 µM
GI50 [45]: 23.4 µM
TGI [45]: 74.3 µM
GI50 [46]: 48.4 µM
TGI [46]: > 100 µM
GI50 [47]: 23.1 µM
TGI [47]: > 100 µM
